From US11180484B2, “Pyrazole derivatives as plasma kallikrein inhibitors” (KALVISTA PHARMACEUTICALS LIMITED, priority 2016, dated 2021)
In brackets after ≈: the same amount, converted by molar mass. Where two headings read alike, the source gives them in different places.

Tests used:
[1] = target: T1, Human plasma kallikrein (Homo sapiens (Human), UniProt P03952); test: Determination of the IC50 for plasma kallikrein; assay type: biochemical; conditions: 25° C., substrate H-DPro-Phe-Arg-AFC; read-out: IC50 (human PKal)
Experimental: Human plasma kallikrein (Protogen) was incubated at 25° C. with the fluorogenic substrate H-DPro-Phe-Arg-AFC and various concentrations of the test compound. Residual enzyme activity (initial rate of reaction) was determined by measuring the change in […] at 410 nm and the IC50 value for the test compound was determined.

[2] = target: Human KLK1 (Homo sapiens (Human), UniProt P06870); test: Determination of the IC50 for KLK1; assay type: biochemical; conditions: 25° C., substrate H-DVal-Leu-Arg-AFC
Experimental: Human KLK1 (Callbiochem) was incubated at 25° C. with the fluorogenic substrate H-DVal-Leu-Arg-AFC and various concentrations of the test compound. Residual enzyme activity (initial rate of reaction) was determined by measuring the change in […] at 410 nm and the IC50 value for the test compound was determined.

[3] = target: Human FXIa (Homo sapiens (Human), UniProt P03951); test: Determination of the % inhibition / IC50 for FXIa; assay type: biochemical; conditions: for inhibition at 40 µM: 40 μM test compound, read-out: % Inhibition @ 40 μM (human FXIa); for IC50: 25° C., substrate Z-Gly-Pro-Arg-AFC
Experimental: FXIa inhibitory activity in vitro was determined using standard published methods (see e.g. Johansen et al., Int. J. Tiss. Reac. 1986, 8, 185; Shori et al., Biochem. Pharmacol., 1992, 43, 1209; Sturzebecher et al., Biol. Chem. Hoppe-Seyler, 1992, 373, 1025). […]

[4] = target: Human Factor XIIa (Homo sapiens (Human), UniProt P00748); test: Factor XIIa inhibitory activity in vitro; assay type: biochemical; conditions: 25° C., substrate H-DPro-Phe-Arg-AFC; read-out: IC50 (human FXIIa)
Experimental: Human Factor XIIa (Enzyme Research Laboratories) was incubated at 25° C. with the fluorogenic substrate H-DPro-Phe-Arg-AFC and various concentrations of the test compound. Residual enzyme activity (initial rate of reaction) was determined by measuring the change in […] at 410 nm and the IC50 value for the test compound was determined.

[5] = target: plasmin (Homo sapiens (Human), UniProt P00747); test: Determination of enzyme selectivity: plasmin; assay type: biochemical; conditions: substrate at Km concentration
Experimental: (§3) Human serine protease enzymes plasmin, thrombin and trypsin were assayed for enzymatic activity using an appropriate fluorogenic substrate. Protease activity was measured by monitoring the accumulation of liberated fluorescence from the substrate over 5 minutes. The linear rate of fluorescence increase per minute was expressed as percentage (%) activity. The Km for the cleavage of each substrate was determined by standard transformation of the Michaelis-Menten equation.

[6] = target: thrombin (Homo sapiens (Human), UniProt P00734); test: Determination of enzyme selectivity: thrombin; assay type: biochemical; conditions: substrate at Km concentration
Experimental: as §3

[7] = target: trypsin; test: Determination of enzyme selectivity: trypsin; assay type: biochemical, human; conditions: substrate at Km concentration
Experimental: as §3

[8] = In vitro permeability, Caco-2 model for oral absorption; assay type: in vitro ADME; conditions: human, apical to basolateral, 50 μM test compound, 37° C.
Summary of the method: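 Caco-2 monolayers grown on collagen inserts for 3 days, with 50 μM compound added apically and incubated 1 hour at 37° C with shaking. Apical-to-basolateral transport measured by LCMS in both compartments. Monolayer integrity checked by TEER before and after, and by Lucifer Yellow flux.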

[9] = Intrinsic clearance in human liver microsomes; assay type: in vitro ADME; conditions: human liver microsomes 0.5 mg/mL, 5 μM test compound, 37° C.; read-out: Human liver microsome (Clint μL/min/mg protein)
Experimental: (§1) Rat or human liver microsomes (0.5 mg/mL; Corning) were incubated with 5 μM test compound at 37° C. on a shaking platform (150 rpm). Samples were taken at 0, 6, 12, 18, 24 and 60 min and test compound concentrations were determined by LCMS against a calibration curve.

[10] = Intrinsic clearance in rat liver microsomes; assay type: in vitro ADME; conditions: rat liver microsomes 0.5 mg/mL, 5 μM test compound, 37° C.; read-out: rat liver microsome (Clint μL/min/mg protein)
Experimental: as §1

[11] = Plasma protein binding (PPB), rapid equilibrium dialysis, human plasma; assay type: in vitro ADME; conditions: 5 μM test compound, dialysis 5 hrs at 37° C.
Experimental: The fraction unbound in plasma was determined using ThermoScientific™ Pierce™ Rapid Equilibrium Dialysis Technology (Single-Use plate with inserts, 8K MWCO). […] Reference samples from the non-dialysed plasma were taken before the incubation to enable an assessment of recovery. Test compound concentrations were determined in plasma and buffer compartments by LCMS against a calibration curve. […] Results are presented as percent plasma protein bound (% PPB).

[12] = Plasma protein binding (PPB), rapid equilibrium dialysis, rat plasma; assay type: in vitro ADME; conditions: 5 μM test compound, dialysis 5 hrs at 37° C.
Experimental: The fraction unbound in plasma was determined using ThermoScientific™ Pierce™ Rapid Equilibrium Dialysis Technology (Single-Use plate with inserts, 8K MWCO). 5 μM test compound was spiked into human or rat plasma (300 μL) and dialysed against 146.5 mM phosphate buffer (500 μL) for 5 hrs at 37° C., shaking at 1200 rpm. Reference samples from the non-dialysed plasma were taken before the incubation to enable an assessment of recovery. Test compound concentrations were determined in plasma and buffer compartments by LCMS against a calibration curve. The fraction unbound in plasma was determined using standard methodology (Waters N J et al (2008) J Pharm Sci 97(10); 4586-95). Results are presented as percent plasma protein bound (% PPB).

[13] = Predicted plasma clearance (Clp), well-stirred model, human; assay type: in vitro ADME; conditions: percentage of hepatic blood flow
Experimental: (§2) The predicted plasma clearance (Clp) is calculated using the well-stirred model (Rowland M, Benet L Z, and Graham G G. Clearance concepts in pharmacokinetics. J Pharmacokinet Biopharm. (1973) 1:123-136.), one of several models that can be used to extrapolate the in vitro data. The model assumes instantaneous and complete mixing of drug within the liver and is a function of intrinsic clearance, hepatic blood flow and free fraction of drug in the blood. The predicted plasma clearance in mL/min/kg is presented as a percentage of hepatic blood flow (LBF).

[14] = Predicted plasma clearance (Clp), well-stirred model, rat; assay type: in vitro ADME; conditions: percentage of hepatic blood flow
Experimental: as §2

[15] = target: T1, Human plasma kallikrein; test: Determination of the Ki for plasma kallikrein (mixed-model inhibition); assay type: biochemical
Experimental: Plasma kallikrein inhibitory activity in vitro was determined using standard published methods (e.g. Johansen et al., Int. J. Tiss. Reac. 1986, 8, 185; Shori et al., Biochem. Pharmacol., 1992, 43, 1209; Sturzebecher et al., Biol. Chem. Hoppe-Seyler, 1992, 373, 1025). […]. Residual enzyme activity (initial rate of reaction) was determined by measuring the change in fluorescence at 410 nm. The Ki value for the test compound was determined using the mixed-model inhibition equation (based on Equation 3.2 in: RA Copeland, Evaluation of Enzyme Inhibitors in Drug Discovery, Wiley 2005) in GraphPad Prism. The mixed model equation includes competitive, uncompetitive and noncompetitive inhibition as special cases and the parameter of Alpha to indicate mechanism of inhibition.

[16] = Solubility in water and 0.1N HCl (aq); assay type: physicochemical; conditions: thermodynamic from solid, incubated at 1 mg/mL, 37° C.
Experimental: Solubility was determined in water and 0.1N HCl (aq). Test compounds were incubated at 1 mg/mL for 24 hrs at 37° C. on a shaking platform (500 rpm). Samples were taken at 1, 4 and 24 hrs and centrifuged at 15,000 g for 10 min. Test compound concentration in the supernatant was determined by LCMS against a standard curve.

[17] = Pharmacokinetics following a single oral dose in male Sprague-Dawley rats; assay type: in vivo; conditions: rat, single po dose (nominal 10 mg/kg; actual dose per row in column Dose po), 10% DMSO/10% cremophor/80% SWFI, plasma
Experimental: Pharmacokinetic studies of the compounds in Table 13 were performed to assess the pharmacokinetics following a single oral dose in male Sprague-Dawley rats. Two rats were given a single po dose of 5 mL/kg of a nominal 2 mg/mL (10 mg/kg) composition of test compound in vehicle. Following dosing, blood samples were collected over a period of 24 hours. Sample times were 5, 15 and 30 minutes then 1, 2, 4, 6, 8 and 12 hours. Following collection, blood samples were centrifuged and the plasma fraction analysed for concentration of test compound by LCMS.

Sequence of plasmin (P00747 581-810): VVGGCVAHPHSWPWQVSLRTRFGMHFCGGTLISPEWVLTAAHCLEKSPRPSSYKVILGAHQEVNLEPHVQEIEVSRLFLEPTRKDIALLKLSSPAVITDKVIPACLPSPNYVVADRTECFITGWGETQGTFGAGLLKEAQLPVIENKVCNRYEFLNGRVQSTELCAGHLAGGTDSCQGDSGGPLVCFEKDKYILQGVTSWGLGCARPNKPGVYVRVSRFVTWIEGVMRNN
Sequence of plasmin (P00747 97-580): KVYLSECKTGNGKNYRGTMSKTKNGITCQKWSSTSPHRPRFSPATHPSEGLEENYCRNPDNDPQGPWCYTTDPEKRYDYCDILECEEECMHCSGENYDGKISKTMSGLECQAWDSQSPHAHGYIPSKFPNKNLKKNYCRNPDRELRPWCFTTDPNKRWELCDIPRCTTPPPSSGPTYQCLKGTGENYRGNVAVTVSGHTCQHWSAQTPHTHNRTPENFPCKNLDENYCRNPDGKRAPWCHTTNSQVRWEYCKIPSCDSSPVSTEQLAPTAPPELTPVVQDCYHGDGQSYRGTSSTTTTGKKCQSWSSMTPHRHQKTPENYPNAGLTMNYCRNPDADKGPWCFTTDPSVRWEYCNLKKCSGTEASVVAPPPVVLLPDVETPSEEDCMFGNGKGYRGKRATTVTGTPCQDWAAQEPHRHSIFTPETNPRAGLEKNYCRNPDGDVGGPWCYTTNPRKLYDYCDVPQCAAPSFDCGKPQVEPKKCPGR
Sequence of Human Factor XIIa (P00748 373-615): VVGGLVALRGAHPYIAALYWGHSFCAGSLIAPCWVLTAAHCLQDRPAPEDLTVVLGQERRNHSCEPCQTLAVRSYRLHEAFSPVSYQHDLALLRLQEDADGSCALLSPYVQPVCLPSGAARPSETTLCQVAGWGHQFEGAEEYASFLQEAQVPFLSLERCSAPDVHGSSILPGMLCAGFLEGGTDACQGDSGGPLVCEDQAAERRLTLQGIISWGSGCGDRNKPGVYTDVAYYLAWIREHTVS
T1 sequence (P03952 391-638): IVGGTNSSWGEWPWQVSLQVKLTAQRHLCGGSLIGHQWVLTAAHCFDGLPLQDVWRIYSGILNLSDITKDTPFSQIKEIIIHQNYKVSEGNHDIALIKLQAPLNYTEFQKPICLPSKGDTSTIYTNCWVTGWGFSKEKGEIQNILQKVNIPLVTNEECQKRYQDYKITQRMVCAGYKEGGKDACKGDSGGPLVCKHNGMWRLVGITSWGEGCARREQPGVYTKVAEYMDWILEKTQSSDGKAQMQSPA
T1 sequence (P03952 20-390): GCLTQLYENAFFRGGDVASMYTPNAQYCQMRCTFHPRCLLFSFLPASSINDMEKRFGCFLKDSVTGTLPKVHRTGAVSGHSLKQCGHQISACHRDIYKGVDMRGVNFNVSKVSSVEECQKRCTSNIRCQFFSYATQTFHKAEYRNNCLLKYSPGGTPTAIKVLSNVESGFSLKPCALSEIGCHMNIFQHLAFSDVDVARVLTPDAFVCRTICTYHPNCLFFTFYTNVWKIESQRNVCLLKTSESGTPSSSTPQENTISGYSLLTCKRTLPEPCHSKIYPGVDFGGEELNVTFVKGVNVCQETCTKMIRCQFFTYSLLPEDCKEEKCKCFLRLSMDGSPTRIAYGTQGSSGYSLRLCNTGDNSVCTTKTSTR
Sequence of Human KLK1 (P06870 25-262): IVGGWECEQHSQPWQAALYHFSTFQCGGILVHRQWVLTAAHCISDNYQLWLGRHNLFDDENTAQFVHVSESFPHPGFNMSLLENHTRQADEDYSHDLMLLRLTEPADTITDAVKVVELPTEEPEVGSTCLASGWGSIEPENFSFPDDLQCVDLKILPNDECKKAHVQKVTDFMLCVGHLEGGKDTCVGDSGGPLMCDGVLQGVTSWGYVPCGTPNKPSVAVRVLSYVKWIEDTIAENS
Sequence of Human FXIa (P03951 388-625): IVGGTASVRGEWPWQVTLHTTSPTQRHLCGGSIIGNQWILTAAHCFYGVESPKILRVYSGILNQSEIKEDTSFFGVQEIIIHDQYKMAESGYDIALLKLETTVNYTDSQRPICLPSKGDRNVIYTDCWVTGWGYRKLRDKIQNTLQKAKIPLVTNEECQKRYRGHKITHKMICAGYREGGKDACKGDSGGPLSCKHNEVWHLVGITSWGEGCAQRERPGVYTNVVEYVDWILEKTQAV
Sequence of Human FXIa (P03951 19-387): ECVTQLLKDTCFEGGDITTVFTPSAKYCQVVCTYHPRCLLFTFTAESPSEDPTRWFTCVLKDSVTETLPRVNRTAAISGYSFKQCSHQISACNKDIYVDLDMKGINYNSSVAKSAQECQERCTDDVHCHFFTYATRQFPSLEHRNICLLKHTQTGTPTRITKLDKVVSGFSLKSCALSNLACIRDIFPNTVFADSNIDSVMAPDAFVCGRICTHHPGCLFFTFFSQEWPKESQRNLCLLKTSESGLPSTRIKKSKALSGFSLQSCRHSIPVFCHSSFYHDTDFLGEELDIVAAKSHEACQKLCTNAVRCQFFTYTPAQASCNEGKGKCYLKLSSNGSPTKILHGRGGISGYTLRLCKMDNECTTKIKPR

Row | SMILES | IC50 [1] | IC50 [2] | inhibition at 40 µM [3] | IC50 [3] | IC50 [4] | IC50 [5] | IC50 [6] | IC50 [7] | Papp at 1 h, 50 μM [8] | microsomal CLint at 5 μM [9] | microsomal CLint at 5 μM [10] | fraction unbound at 5 h, 5 μM [11] | fraction unbound at 5 h, 5 μM [12] | Predicted in vivo human Clp (% LBF) [13] | Predicted in vivo rat Clp (% LBF) [14] | further results
1 | COCc1nn(Cc2ccc(Cn3ccccc3=O)cc2)cc1C(=O)NCc1cc(OC)ccc1C#N [Example 37, N-[(2-cyano-5-methoxyphenyl)methyl]-3-(methoxymethyl)-1-({4-[(2-oxopyridin-1-yl)methyl]phenyl}methyl)pyrazole-4-carboxamide] | 0.283 µM | > 40 µM | 7% | > 40 µM | > 40 µM | > 40 µM | > 40 µM | > 40 µM | 200 nm/s | 48 µL/min/mg | 73 µL/min/mg | 0.08 | 0.05 | 16 % LBF | 11 % LBF | 
2 | COc1ccc(C#N)c(CNC(=O)c2cn(Cc3ccc(Cn4ccccc4=O)cc3)nc2N)c1F [Example 43, 3-amino-N-[(6-cyano-2-fluoro-3-methoxyphenyl)methyl]-1-({4-[(2-oxopyridin-1-yl)methyl]phenyl}methyl)pyrazole-4-carboxamide] | 0.0006 µM | > 4 µM | 27% | > 40 µM | > 4 µM | > 40 µM | > 40 µM | > 40 µM | 20 nm/s | 10 µL/min/mg | 5 µL/min/mg | 0.12 | 0.08 | 8 % LBF | 2 % LBF | 
3 | COCc1nn(Cc2ccc(Cn3cc(F)ccc3=O)cc2)cc1C(=O)NCc1c(C#N)ccc(OC)c1F [Example 53, N-[(6-cyano-2-fluoro-3-methoxyphenyl)methyl]-1-({4-[(5-fluoro-2-oxopyridin-1-yl)methyl]phenyl}methyl)-3-(methoxymethyl)pyrazole-4-carboxamide] | 0.0017 µM | > 40 µM | 5% | > 40 µM | > 40 µM | > 40 µM | > 40 µM | > 40 µM | 130 nm/s | 104 µL/min/mg | 77 µL/min/mg | 0.1 | 0.04 | 35 % LBF | 10 % LBF | 
4 | COCc1nn(Cc2ccc(Cn3ccccc3=O)cc2)cc1C(=O)NCc1ccccc1-n1cnnn1 [Example 74, 3-(methoxymethyl)-1-({4-[(2-oxopyridin-1-yl)methyl]phenyl}methyl)-N-{[2-(1,2,3,4-tetrazol-1-yl)phenyl]methyl}pyrazole-4-carboxamide] | 0.0176 µM | > 40 µM | 8% | > 40 µM | > 40 µM | > 40 µM | > 40 µM | > 40 µM | 20 nm/s |  |  |  |  |  |  | 
5 | COCc1nn(Cc2cnc(N3CCC(F)(F)C3)nc2)cc1C(=O)NCc1c(-n2cnnn2)ccc(OC)c1F [Example 86, 1-{[2-(3,3-Difluoropyrrolidin-1-yl)pyrimidin-5-yl]methyl}-N-{[2-fluoro-3-methoxy-6-(1,2,3,4-tetrazol-1-yl)phenyl]methyl}-3-(methoxymethyl)pyrazole-4-carboxamide] | 0.0017 µM | > 40 µM | 99% | 0.477 µM | > 40 µM |  |  |  | 160 nm/s | 4 µL/min/mg | 35 µL/min/mg | 0.1 | 0.03 | 2 % LBF | 3 % LBF | Ki ([15]; human plasma kallikrein, mixed-model inhibition equation): 0.00028 µM; Alpha ([15]; parameter of the mixed-model equation indicating mechanism of inhibition): 2.78; solubility ([16]; simulated gastric fluid, 0.1N HCl (aq), read-out: Solubility 0.1N HCl (aq)): 0.05 mg/mL (≈ 89.5 µM); solubility ([16]; water, read-out: Solubility Water): 0.001 mg/mL (≈ 1.79 µM); Cmax [17]: 0.981 µg/mL; Tmax [17]: 30 min
